pKi: −log10 of the molar value.

The test addresses T1, Tubulin--tyrosine ligase (Homo sapiens, UniProt Q8NG68).
T1 sequence (Q8NG68 whole entry): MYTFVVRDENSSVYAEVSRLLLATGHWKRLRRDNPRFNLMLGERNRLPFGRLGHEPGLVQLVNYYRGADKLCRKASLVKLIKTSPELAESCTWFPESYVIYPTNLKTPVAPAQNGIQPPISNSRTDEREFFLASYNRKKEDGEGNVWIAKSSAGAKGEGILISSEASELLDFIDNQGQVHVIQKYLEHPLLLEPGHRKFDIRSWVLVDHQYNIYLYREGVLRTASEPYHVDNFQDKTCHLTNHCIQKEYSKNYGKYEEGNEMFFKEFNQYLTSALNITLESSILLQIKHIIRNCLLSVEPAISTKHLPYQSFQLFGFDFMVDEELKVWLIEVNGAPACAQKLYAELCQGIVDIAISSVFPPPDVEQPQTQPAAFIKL
As to the kind of experiment: [3H]-Tyr Incorporation Assay. The settings on record: pH 6.8; 37 °C. The text has this: Inhibition of [3H]-L-tyrosine incorporation into tubulin by enzyme tubulin tyrosine ligase (TTL).
As to `[N-]=[N+]=Nc1cc(CC(N)C(=O)O)ccc1O` (stereo not drawn) [3-Azidotyrosine], the pKi was 3.70. In turn, `NC(Cc1ccc(O)c(C=O)c1)C(=O)O` (stereo not drawn) [3-Formyltyrosine] showed a pKi of 3.52. Consider `Nc1ccc(CC(N)C(=O)O)cc1` (stereo not drawn) [4-Aminophenylalanine], for which the negative-log Ki (pKi) is below 2.40.

One may read the pKi as the Ki on a negative log10 scale, so that one unit is a factor of ten. A high value points to a small Ki.
